Measured values from patent publication US20070042037A1, “Pharmaceutical composition containing levodopa and carbidopa” (priority 2003, published 2007).

Assays:
[1] = Dissolution test, continuous-flow dissolution chamber, in vitro release; assay type: physicochemical; conditions: pH 1.1 artificial gastric juice, 25 ml/min, 37° C., mean of 6 measurements
Description: Six samples of a 250 mg preparation (50+200) were tested using a solution at pH 1.1 (artificial gastric juice) in a continuous-flow dissolution chamber (25 ml/min, 37° C.). The following percentages of release during the 24 hours were obtained (each value is the mean of 6 measurements): […]

[2] = in vivo; cited from earlier work
[3] = 3rd hour, 250 mg preparation (50 mg carbidopa+200 mg levodopa, ethylcellulose-coated granules)
[4] = 6th hour, 250 mg preparation (50+200)
[5] = 9th hour, 250 mg preparation (50+200)
[6] = 12th hour, 250 mg preparation (50+200)
[7] = 24th hour, 250 mg preparation (50+200)

| SMILES | In vitro release, % released average [1, 3] [%] | In vitro release, % released average [1, 4] [%] | In vitro release, % released average [1, 5] [%] | In vitro release, % released average [1, 6] [%] | In vitro release, % released average [1, 7] [%] | Time to attain the maximum plasmatic concentration [2] [h] |
| --- | --- | --- | --- | --- | --- | --- |
| N[C@@H](Cc1ccc(O)c(O)c1)C(=O)O [Levodopa, levodopa] | 22 | 43 | 59 | 68 | 90 | 1 to 2 |
| C[C@@](Cc1ccc(O)c(O)c1)(NN)C(=O)O [Carbidopa, carbidopa] | 26 | 39 | 51 | 63 | 89 |  |
